Test results published in PubChem BioAssay (NCI).
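Method: 48-hour compound exposure of cells in 96-well plates, five concentrations, linear interpolation of endpoints. Abbreviation: GI50, concentration required for 50% inhibition of growth. The concentration for full growth arrest is given as TGI.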

What was measured:
Experiment in all cases: inhibition of tumour cell growth, NCI panel, 48 h
[1] = test system: SNB-75 CNS
[2] = test system: SF-295 CNS
[3] = test system: HCT-15 colon
[4] = test system: SK-MEL-2 melanoma
[5] = test system: OVCAR-4 ovarian
[6] = test system: OVCAR-3 ovarian
[7] = test system: A549 NSCLC
[8] = test system: BT-549 breast
[9] = test system: HOP-92 NSCLC
[10] = test system: SK-OV-3 ovarian
[11] = test system: KM12 colon
[12] = test system: UO-31 renal
[13] = test system: SF-268 CNS
[14] = test system: SR leukemia
[15] = test system: OVCAR-8 ovarian
[16] = test system: MDA-MB-435
[17] = test system: SK-MEL-28 melanoma
[18] = test system: TK-10 renal
[19] = test system: PC-3 prostate
[20] = test system: COLO 205 colon
[21] = test system: MDA-MB-231 breast
[22] = test system: LOX IMVI melanoma
[23] = test system: NCI-H522 lung
[24] = test system: DU-145 prostate
[25] = test system: SK-MEL-5 melanoma
[26] = test system: UACC-62 melanoma
[27] = test system: A498 renal
[28] = test system: MOLT-4 leukemia
[29] = test system: MCF7 breast
[30] = test system: K-562 leukemia
[31] = test system: M14 melanoma
[32] = test system: HOP-62 NSCLC
[33] = test system: UACC-257 melanoma
[34] = test system: OVCAR-5 ovarian
[35] = test system: CCRF-CEM leukemia
[36] = test system: MALME-3M melanoma
[37] = test system: NCI-H23 lung
[38] = test system: SW-620 colon
[39] = test system: EKVX NSCLC
[40] = test system: HT29 colon
[41] = test system: IGROV1 ovarian
[42] = test system: SN12C renal
[43] = test system: SF-539 CNS
[44] = test system: ACHN renal
[45] = test system: RPMI-8226 leukemia
[46] = test system: NCI-H226 lung
[47] = test system: NCI-H460 lung
[48] = test system: CAKI-1 renal
[49] = test system: SNB-19 CNS
[50] = test system: NCI/ADR-RES ovarian
[51] = test system: HS 578T breast
[52] = test system: RXF 393 renal
[53] = test system: HCT-116 colon
[54] = test system: HCC-2998 colon
[55] = test system: HL-60(TB) leukemia
[56] = test system: T-47D breast
[57] = test system: 786-0 renal
[58] = test system: U251 CNS

C#CCNCCCN1C(=O)c2ccc3c4c(ccc(c24)C1=O)C(=O)N(CCCNCC#C)C3=O
GI50 [1]: 0.451 µM | TGI [1]: 1.69 µM | GI50 [2]: 0.119 µM | TGI [2]: 0.514 µM | GI50 [3]: 0.206 µM | TGI [3]: 0.809 µM | GI50 [4]: 0.244 µM | TGI [4]: 0.729 µM | GI50 [5]: 0.137 µM | TGI [5]: 0.279 µM | GI50 [6]: 0.277 µM | TGI [6]: 0.957 µM | GI50 [7]: 0.134 µM | TGI [7]: 0.393 µM | GI50 [8]: 1.44 µM | TGI [8]: 2.89 µM | GI50 [9]: 1.79 µM | TGI [9]: 7.74 µM | GI50 [10]: 0.645 µM | TGI [10]: 4.32 µM | GI50 [11]: 0.284 µM | TGI [11]: 1.33 µM | GI50 [12]: 0.26 µM | TGI [12]: 1.38 µM | GI50 [13]: 0.404 µM | TGI [13]: 3.05 µM | GI50 [14]: 0.219 µM | TGI [14]: 1.04 µM | GI50 [15]: 0.18 µM | TGI [15]: 1.55 µM | GI50 [16]: 0.189 µM | TGI [16]: 0.404 µM | GI50 [17]: 0.613 µM | TGI [17]: 2.16 µM | GI50 [18]: 0.689 µM | TGI [18]: 6.88 µM | GI50 [19]: 0.463 µM | TGI [19]: 4.41 µM | GI50 [20]: 0.0911 µM | TGI [20]: 0.238 µM | GI50 [21]: 0.67 µM | TGI [21]: 5.92 µM | GI50 [22]: 0.205 µM | TGI [22]: 0.637 µM | GI50 [23]: 0.251 µM | TGI [23]: 0.841 µM | GI50 [24]: 0.219 µM | TGI [24]: 0.6 µM | GI50 [25]: 0.14 µM | TGI [25]: 0.274 µM | GI50 [26]: 0.384 µM | TGI [26]: 1.07 µM | GI50 [27]: 0.312 µM | TGI [27]: 1.41 µM | GI50 [28]: 0.188 µM | TGI [28]: 0.869 µM | GI50 [29]: 0.132 µM | TGI [29]: 0.328 µM | GI50 [30]: 0.23 µM | TGI [30]: 1.63 µM | GI50 [31]: 0.317 µM | TGI [31]: 0.987 µM | GI50 [32]: 0.267 µM | TGI [32]: 1.56 µM | GI50 [33]: 0.181 µM | TGI [33]: 0.342 µM | GI50 [34]: 0.534 µM | TGI [34]: 2.61 µM | GI50 [35]: 0.295 µM | TGI [35]: 2.89 µM | GI50 [36]: 0.158 µM | TGI [36]: 0.373 µM | GI50 [37]: 0.22 µM | TGI [37]: 0.669 µM | GI50 [38]: 0.154 µM | TGI [38]: 0.992 µM | GI50 [39]: 0.302 µM | TGI [39]: 1.13 µM | GI50 [40]: 0.0766 µM | TGI [40]: 0.539 µM | GI50 [41]: 0.187 µM | TGI [41]: 0.972 µM | GI50 [42]: 0.214 µM | TGI [42]: 0.949 µM | GI50 [43]: 0.47 µM | TGI [43]: 1.75 µM | GI50 [44]: 0.144 µM | TGI [44]: 1.74 µM | GI50 [45]: 0.404 µM | TGI [45]: 4.18 µM | GI50 [46]: 0.151 µM | TGI [46]: 0.551 µM | GI50 [47]: 0.101 µM | TGI [47]: 0.363 µM | GI50 [48]: 0.237 µM | TGI [48]: 0.955 µM | GI50 [49]: 0.328 µM | TGI [49]: 1.45 µM | GI50 [50]: 0.467 µM | TGI [50]: 3.81 µM | GI50 [51]: 0.919 µM | TGI [51]: 4.76 µM | GI50 [52]: 0.228 µM | TGI [52]: 1.07 µM | GI50 [53]: 0.157 µM | TGI [53]: 1.95 µM | GI50 [54]: 0.242 µM | TGI [54]: 0.766 µM | GI50 [55]: 0.305 µM | TGI [55]: 0.988 µM | GI50 [56]: 1.02 µM | TGI [56]: 3.9 µM | GI50 [57]: 0.778 µM | TGI [57]: 5.36 µM | GI50 [58]: 0.223 µM | TGI [58]: 1.02 µM

O=Cc1cn(Cc2ccccc2)c2ccccc12
GI50 [1]: 27.1 µM | TGI [1]: > 100 µM | GI50 [2]: 5.15 µM | TGI [2]: > 63.4 µM | GI50 [3]: 52.4 µM | TGI [3]: > 100 µM | GI50 [4]: 8.62 µM | TGI [4]: 60.6 µM | GI50 [5]: 5.83 µM | TGI [5]: > 100 µM | GI50 [6]: 21 µM | TGI [6]: > 67.5 µM | GI50 [7]: 35 µM | TGI [7]: > 100 µM | GI50 [8]: 29.2 µM | TGI [8]: > 96.8 µM | GI50 [9]: 20.6 µM | TGI [9]: > 100 µM | GI50 [10]: 4.04 µM | TGI [10]: > 100 µM | GI50 [11]: 53.3 µM | TGI [11]: > 100 µM | GI50 [12]: 18.2 µM | TGI [12]: > 100 µM | GI50 [13]: 52.1 µM | TGI [13]: > 100 µM | GI50 [14]: > 35.4 µM | TGI [14]: > 82 µM | GI50 [15]: 43.5 µM | TGI [15]: > 100 µM | GI50 [16]: 46.2 µM | TGI [16]: > 100 µM | GI50 [17]: > 57.8 µM | TGI [17]: > 100 µM | GI50 [18]: 0.946 µM | TGI [18]: 9 µM | GI50 [19]: 35.7 µM | TGI [19]: > 100 µM | GI50 [20]: 0.438 µM | TGI [20]: > 32.4 µM | GI50 [21]: 38.7 µM | TGI [21]: > 100 µM | GI50 [22]: 24.4 µM | TGI [22]: > 100 µM | GI50 [23]: > 100 µM | TGI [23]: > 100 µM | GI50 [24]: > 68.2 µM | TGI [24]: > 100 µM | GI50 [25]: 18.7 µM | TGI [25]: > 70 µM | GI50 [26]: 2.31 µM | TGI [26]: 19.4 µM | GI50 [27]: 0.163 µM | TGI [27]: 0.389 µM | GI50 [28]: 21.1 µM | TGI [28]: > 100 µM | GI50 [29]: 30.7 µM | TGI [29]: > 100 µM | GI50 [30]: 18.7 µM | TGI [30]: > 100 µM | GI50 [31]: 43.4 µM | TGI [31]: > 100 µM | GI50 [32]: 21.8 µM | TGI [32]: > 100 µM | GI50 [33]: 3.44 µM | TGI [33]: 19.5 µM | GI50 [34]: 0.238 µM | GI50 [35]: 41.8 µM | TGI [35]: > 100 µM | GI50 [36]: > 56 µM | TGI [36]: > 100 µM | GI50 [37]: 37.9 µM | TGI [37]: > 100 µM | GI50 [38]: 45.6 µM | TGI [38]: > 100 µM | GI50 [39]: 22.8 µM | TGI [39]: > 81 µM | GI50 [40]: 61.5 µM | TGI [40]: > 100 µM | GI50 [41]: 0.5 µM | TGI [41]: > 38.1 µM | GI50 [42]: 49.2 µM | TGI [42]: > 100 µM | GI50 [43]: 43.7 µM | TGI [43]: > 100 µM | GI50 [44]: 33.6 µM | TGI [44]: > 100 µM | GI50 [45]: 6.39 µM | TGI [45]: 47.7 µM | GI50 [46]: 0.916 µM | TGI [46]: 3.72 µM | GI50 [47]: 0.279 µM | TGI [47]: > 100 µM | GI50 [48]: < 0.0426 µM | TGI [48]: 0.547 µM | GI50 [49]: 75.4 µM | TGI [49]: > 100 µM | GI50 [50]: 35.7 µM | TGI [50]: > 100 µM | GI50 [51]: 30.5 µM | TGI [51]: > 100 µM | GI50 [52]: > 47.7 µM | TGI [52]: 97.7 µM | GI50 [53]: 13.7 µM | TGI [53]: > 100 µM | GI50 [54]: 21.9 µM | TGI [54]: > 100 µM | GI50 [55]: 16.9 µM | TGI [55]: > 80.5 µM | GI50 [56]: 3.12 µM | TGI [56]: > 100 µM | GI50 [57]: 33.1 µM | TGI [57]: 97.8 µM | GI50 [58]: 31.5 µM | TGI [58]: > 100 µM
